# Laboratory results reported in patent publication US20230406803A1, “TROPOLONE DERIVATIVES AND TAUTOMERS THEREOF FOR IRON REGULATION IN ANIMALS” (Kinesid Therapeutics, Inc, priority 2020, published 2023).
# Tests used:
# [1] = Human liver microsomal stability assay; type: in vitro ADME; conditions: human liver microsomes
# Source text: (§1) Further examples of useful assays include metabolic stability assays, such as but not limited to e.g., liver microsomal clearance assays which provide measurement such as, but not limited to e.g., liver microsomal clearance half-life (t1/2), liver microsomal intrinsic clearance (CLint), and the like. Such measurements are useful in assessing various characteristics of a subject compound, such as e.g., the availability of an intact compound to provide a pharmacological effect. A compound having a longer microsomal clearance half-life (t1/2), e.g., than a reference compound, will provide better exposure of the intact compound and greater availability to produce the relevant pharmacological effect. A compound having a less microsomal clearance, e.g., as measured by liver microsomal intrinsic clearance (CLint), will similarly result in greater exposure of the intact compound available for an increase in the relevant pharmacological effect, e.g., as compared to that of a reference compound with a higher liver microsomal intrinsic clearance (CLint). Other useful assays include in vitro hepatocyte metabolic stability assays.
# (§2) Such assessments included human and mouse liver microsomal stability assays as well as 6-hour mouse PK studies.
# [2] = Mouse liver microsomal stability assay; type: in vitro ADME; conditions: mouse liver microsomes
# Source text: as §1, §2
# [3] = Mouse 6-hour PK study; conditions: in vivo, mouse 6-hour PK
# Source text: Useful such assays include, but are not limited to e.g., those measurements made in PK studies, such as rodent and non-human primate PK studies, including e.g., mouse (such as mouse 6-hour PK studies), rat PK studies, cynomolgus or rhesus PK studies, or the like. Useful measurements obtained in such PK studies include but are not limited to e.g., maximum concentration (Cmax) reflecting the “peak” of a drug observed after its administration that can reflect not only the rate but also the extent of absorption, area under the curve (AUC) representing the area under the plot of tissue (e.g., plasma) concentration against time after drug administration which is of particular use in estimating bioavailability of drugs and drug total clearance, half-life (t1/2) or the period of time required for the concentration or amount of drug to be reduced to exactly one-half of a given concentration or amount that indicates the persistence of the drug in its volume of distribution, and the like.
# as §2
# [4] = Ligand facilitated Fe(III) efflux from liposomes; type: biochemical; parameters: unit not given here; conditions: efflux rate k at 10 μM ligand concentration; ferrozine absorbance 562 nm, 120 min kinetic read
# In short: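 POPC/cholesterol liposomes loaded with Fe(III) citrate in MES/Tris pH 7.0, diluted to 1 mM phosphorus in ascorbate buffer with 1 mM ferrozine outside. Ligand at 1.25–40 µM; absorbance at 562 nm read every 60 s for 120 min. Efflux rate k fitted by single-phase association, averaged over triplicates, compared at 10 µM.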
smiles,measurement,setting,value
"CC(C)c1cccc(=O)c(O)c1 [hinokitiol, reference compound]",microsomal CLint,[1]; read-out: Human CLint,120 µL/min/mg
same,half-life,[1]; read-out: Human t1/2,11.6 min
same,microsomal CLint,[2]; read-out: Mouse CLint,46.7 µL/min/mg
same,half-life,[2]; read-out: Mouse t1/2,29.7 min
same,AUC(0-t),[3]; read-out: AUClast 0-6 hr,584 ng·h/mL
same,Cmax,[3]; read-out: Cmax,956 ng/mL
same,half-life,[3]; read-out: t1/2 (converted),66.6 min
same,Liposome Fe transport kefflux at 10 μM,[4],7.77
